Among the data in publication PMC6706418, “Systemically Administered Plant Recombinant Holo-Intrinsic Factor Targets the Liver and is not Affected by Endogenous B12 levels” (Scientific Reports, 2019) are Kd values, retold here.

This test has as its target T1, human gastric Intrinsic factor (IF; hrIF) (Homo sapiens, UniProt P27352).
T1 construct: gene CBLIF; recombinant apo-IF expressed in Arabidopsis thaliana (Xeragenx LLC); secreted glycoprotein ~50 kDa with plant glycosylation
The test can be described thus: radiometric chase assay with […]-B12. The class given is binding. Conditions: competition against 57Co-B12; B12-desferrioxamine conjugate chelated to cold 91Zr (pH 7-7.5).

One may read the Kd as the equilibrium constant for the complex coming apart. High values mean a looser complex, low ones a tighter complex.

T1 sequence (P27352 19-417): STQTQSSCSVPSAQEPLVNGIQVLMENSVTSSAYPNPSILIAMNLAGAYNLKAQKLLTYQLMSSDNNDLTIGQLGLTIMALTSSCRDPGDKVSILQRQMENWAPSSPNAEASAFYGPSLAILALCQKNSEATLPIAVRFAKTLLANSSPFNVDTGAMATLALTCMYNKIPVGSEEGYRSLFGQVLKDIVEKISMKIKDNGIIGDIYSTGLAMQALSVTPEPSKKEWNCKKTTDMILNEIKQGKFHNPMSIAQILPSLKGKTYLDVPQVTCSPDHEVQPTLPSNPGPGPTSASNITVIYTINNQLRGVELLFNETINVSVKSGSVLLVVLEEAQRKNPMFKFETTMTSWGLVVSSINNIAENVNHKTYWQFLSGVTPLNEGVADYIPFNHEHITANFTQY

In turn, [^91Zr]-B12 came in with a Kd of 1.57 nM.
